The target of data set [1] is T1, Atlantic cod estrogen receptor alpha (gmEra) LBD (Gadus morhua, UniProt U5ILH7).
T1 sequence (U5ILH7 170-455): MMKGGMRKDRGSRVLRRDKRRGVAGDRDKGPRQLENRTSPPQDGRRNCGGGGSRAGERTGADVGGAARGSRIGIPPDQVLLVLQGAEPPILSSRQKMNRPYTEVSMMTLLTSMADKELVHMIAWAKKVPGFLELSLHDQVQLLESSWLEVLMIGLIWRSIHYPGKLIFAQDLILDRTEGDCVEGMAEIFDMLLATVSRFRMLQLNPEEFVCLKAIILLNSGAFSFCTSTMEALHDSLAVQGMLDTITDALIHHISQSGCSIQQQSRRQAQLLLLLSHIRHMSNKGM
The data set is described as follows: Luciferase reporter gene assay, gmEra agonism (estrogenic activity) in transfected COS-7 cells. As to conditions: for EC50: gmEra EC50, four-parameter logistic fit; for gmEra REP50 (relative potency EC50, EC50-bisphenol A/EC50-bisphenol X): relative to BPA. The method, then: (§1) Ligand activation of gmEra and gmAra was studied with a luciferase reporter gene assay in COS-7 cells transiently transfected with the pCMX-GAL4(DBD)-gmEra(LBD) or pCMX-GAL4(DBD)-gmAra(LBD) plasmid by using the TransIT-LT1 reagent (TransIT-LT1 Transfection Reagent, Mirus). Cells were seeded into 96-well plates (5000 cells/well) and incubated for 24 h before cotransfection with the plasmid mixture (100 ng/well). The plasmid mixture contained GAL4-UAS luciferase reporter plasmid (tk-(MH100)x4 luc), the pCMX-GAL4(DBD)-gmEra(LBD) or pCMX-GAL4(DBD)-gmAra(LBD) receptor plasmids (2:1 reporter:receptor plasmid mass ratio), and a plasmid constitutively producing the β-galactosidase enzyme used for normalization of transfection efficiency (pCMV- β-Gal). […] The maximum DMSO/methanol concentrations in the exposure wells were 0.5% (v/v) in DMEM medium without phenol red (Sigma-Aldrich). After exposure, cells were lysed, and luciferase and beta-galactosidase activities were measured as luminescence and absorbance (420 nm) after the addition of luciferin and ONPG substrates, respectively, using an Enspire Multimode plate reader (PerkinElmer, Waltham, Massachusetts, USA).
Luciferase reporter gene assays were established with COS-7 cells transiently producing the LBD of gmEra (Figure S1) for evaluating the estrogenic potential of 12 bisphenols.
COS-7 cells transiently transfected with gmEra-LBD were exposed to EE2 (open circles), BPA (black circles), and 11 different BPA analogs (red squares and as indicated) at increasing concentrations. Responses are presented as mean fold activation in luciferase activity in comparison to solvent-exposed cells ± SEM from three independent experiments with three technical replicates (n = 9). The dose–response curves were created using nonlinear regression and the four parameter logistic fit in Graphpad Prism v.9. For comparison, the dose–response curve of BPA (black line) is indicated together with each individual BP tested (red line). *p < 0.05 versus solvent control by one-way ANOVA and Dunnett’s multiple comparison post hoc test.
For orientation: In a reporter assay the amount or activity of a reporter protein is the signal.

Data set [2] concerns the target T1, Atlantic cod estrogen receptor alpha (gmEra) LBD. Description: Luciferase reporter gene assay, gmEra antagonism (antiestrogenic activity), coexposure with 3 nM EE2. The data set is classed as cell-based. As to conditions: coexposure with EE2 (3 nM, EC20). The method, then:
as §1
To investigate potential antiestrogenic effects, COS-7 cells transiently expressing gmEra LBD were exposed to the 12 bisphenols in binary mixtures with a fixed concentration of EE2 (3 nM, corresponding to EC20) (Figure 2 and Table 1).
(§2) The dose–response curves were created using nonlinear regression and the four-parameter logistic fit in Graphpad Prism v.9. *p < 0.05 versus solvent control by ANOVA and Dunnett’s multiple comparison post hoc test.

In data set [3] the target is T2, Atlantic cod androgen receptor alpha (gmAra) LBD (Gadus morhua, UniProt D5FIC7).
T2 sequence (D5FIC7 409-718): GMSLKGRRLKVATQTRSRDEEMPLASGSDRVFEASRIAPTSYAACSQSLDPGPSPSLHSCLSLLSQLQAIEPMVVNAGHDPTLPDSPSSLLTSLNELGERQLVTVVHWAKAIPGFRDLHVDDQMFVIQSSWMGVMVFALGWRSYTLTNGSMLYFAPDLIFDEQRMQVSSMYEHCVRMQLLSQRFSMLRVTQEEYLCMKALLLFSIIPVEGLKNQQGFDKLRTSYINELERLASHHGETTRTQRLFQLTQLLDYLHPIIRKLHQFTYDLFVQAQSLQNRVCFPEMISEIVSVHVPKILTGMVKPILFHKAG
The data set is described as follows: Luciferase reporter gene assay, gmAra agonism (androgenic activity) in transfected COS-7 cells. As to conditions: for maximal fold induction: COS-7, monkey, 24 h, read-out: gmAra Emax. The method, then: as §1
Figure 3 Androgenic activity of bisphenols. COS-7 cells were transiently transfected with gmAra LBD and exposed individually to 12 bisphenol analogs at increasing concentrations. […] The dose–response curves were created using nonlinear regression and the four-parameter logistic fit in Graphpad Prism v.9. For comparison, the dose–response curve of BPA (black line) is indicated together with each individual BP tested (red line). *p < 0.05 versus solvent control by one-way ANOVA and Dunnett’s multiple comparison post hoc test.

Data set [4] has as its target T2, Atlantic cod androgen receptor alpha (gmAra) LBD. The data set is described as follows: Luciferase reporter gene assay, gmAra antagonism (antiandrogenic activity), coexposure with 5 nM testosterone. The format is cell-based. As to conditions: for effect on testosterone-mediated gmAra activity, result in words: BPs 0.003–50 μM with 5 nM testosterone; for IC50: gmAra IC50, in the presence of 5 nM testosterone (EC20). The method, then: as §1, §2

The subject of data set [5] is Er-mediated synthesis of Vtg in Atlantic cod PCLS. Description: Vitellogenin ELISA in media of exposed precision-cut liver slices (PCLS). The format is cell-based, Atlantic cod (Gadus morhua). The note with it: 1, 10, 100 μM bisphenols or 0.1, 1, 10 nM EE2; 96 h; Vtg in media by ELISA. The method, then: PCLS culturing and exposure assays were performed essentially as described previously,[42],[56] with the modifications described below. Juvenile Atlantic cod were killed by a blow to the head, and the liver was dissected out and placed in a Petri dish containing ice-cold PCLS buffer (122 mM NaCl, 4.8 mM KCl, 1.2 mM MgSO4, 11 mM Na2HPO4, 3.7 mM NaHCO3, […]). The liver was then cut into small tissue blocks (approximately 3 cm long, 2 cm wide, and 1–3 cm high) and kept in ice-cold complete culture medium (L-15 medium supplemented with 10% FBS and 1× antibiotic-antimycotic solution). For slicing, the tissue block was fixed on the specimen plate of a Leica vibrating blade microtome VT1200 (Leica, Wetzlar, Germany) using Loctite Super Glue (Clas Ohlson, Bergen, Norway), and 250 μm thick tissue slices were cut (under ice-cold PCLS buffer) and kept in a Petri dish with ice-cold complete culture medium. Using a sterile razor blade, the tissue slices (2 × 3 cm) were then divided into smaller pieces (approximately 4 × 4 mm) and distributed into a 12-well cell culture plate (Sarstedt, Nümbrecht, Germany), each well containing 6 slices and 2 mL of complete culture medium. The PCLS were preincubated at 10 °C for 2 h before exposure. After preincubation, 1 mL of the medium was removed from each well and replaced by 1 mL of fresh complete culture medium containing 2x the final desired concentration and incubated at 10 °C for 96 h with shaking at 50 rpm. […] At the end of the exposure, slices were collected with tweezers and rinsed briefly in cold PBS. Excess PBS was removed by carefully touching a dry surface of the culture plate with the slice 4 times before measuring the weight in a preweighed cryotube. The slices were then snap-frozen in liquid N2 and stored at −80 °C. The media was also sampled and stored at −80 °C for viability (LDH) assay and vitellogenin ELISA.
Vitellogenin (Vtg) in media collected from exposed PCLS was quantified using the Atlantic Cod Vitellogenin ELISA kit (Biosense Laboratories AS, Bergen, Norway) according to manufacturer’s instructions. Vtg was quantified in 100 μL of undiluted media and normalized to the weight of the liver tissue. Statistical analysis of ELISA data was performed with GraphPad Prism Software version 9 (GraphPad Prism, La Jolla, CA, USA) by using one-way ANOVA followed by Dunnett’s test (for normally distributed data) or Friedman test followed by Dunn’s test (for non-normally distributed data), as described previously for PCLS experiments (Yadetie et al.[42]).
Figure 5 Relative vitellogenin production in Atlantic cod precision-cut liver slices (PCLS) exposed to bisphenols and EE2. PCLS were exposed to 1, 10, and 100 μM bisphenols or 0.1, 1, and 10 nM EE2, for 96 h. EE2 was included as positive control for activation of the gmEra signaling pathway. Levels of induced Vtg in the PCLS media were measured using ELISA (Cod Vitellogenin ELISA kit, Biosense Laboratories AS). The data represents mean ± SEM of fold change (compared to solvent control) of Vtg levels from 4 to 10 fish. n = 8–10 for all bisphenols except for BADGE (n = 4). Asterisks denote significant changes (p < 0.05) compared to solvent control.
On the technique in general: In an ELISA, binding on a coated surface is turned into a signal by an enzyme label.

Data set [6] relates to Er. Further details: method as in doi:10.11403/jset.11.133. As to conditions: medaka; cited from earlier work.
In data set [7] the test system is Er. Further details: method as in PMID 12651187. The note with it: carp; cited from earlier work.
Data set [8] has as its system human Era. Further details: method as in PMID 15635150. The note with it: cited from earlier work.

Data on two compounds can be found in paper PMC11325555, “Interaction of Bisphenol A and Its Analogs with Estrogen and Androgen Receptor from Atlantic Cod (Gadus morhua)” (Environmental Science & Technology, 2024).

“Also recorded” adds a separate entry of the source. Where two headings read alike, the source gives them in different places.

The EC50 is the concentration that produces a half-maximal response. Broadly, the IC50 is the concentration that inhibits the measured activity by half. `CC(c1ccc(O)cc1)c1ccc(O)cc1` [BPE] showed an EC50 in data set [1] (24 h exposure) of 11.7 µM. Moreover, in data set [1], the “gmEra REP50 (relative potency EC50, EC50-bisphenol A/EC50-bisphenol X)” value was found to be 0.2. Besides, the “antiestrogenic effect on gmEra, result in words” value in data set [2] is recorded as “no antiestrogenic effects”. The maximal fold induction in data set [3] worked out at 1.2. In data set [4], the “effect on testosterone-mediated gmAra activity, result in words” value is “significantly decrease the testosterone-mediated Ara-activity” and the IC50 was found to be 460 nM. The “Vtg synthesis in PCLS, result in words” value in data set [5] was “induced the highest Vtg-levels ex vivo”.

Turning to `CC(C)(c1ccc(O)cc1)c1ccc(O)cc1` [BPA, Bisphenol A], the maximal fold induction in data set [1] (COS-7, monkey, 24 h, read-out: gmEra Emax) is 19.4; in data set [3] it was 1.6. Moreover, the “gmEra Emax” value in data set [1] (fold activation in luciferase activity vs solvent control, 24 h exposure, * = statistically significant, a = plateau not reached, highest fold activation obtained, 1440 min) worked out at 19 fold activation. For the same compound, the EC50 was 1.9 µM in data set [1] (24 h exposure); 25.7 µM in data set [3]; 590 nM in data set [6]; 26 µM in data set [7]; 630 nM in data set [8]. Besides, the “gmEra REP50 (relative potency EC50, EC50-bisphenol A/EC50-bisphenol X)” value in data set [1] stood at 1.0. Besides, the “antiestrogenic effect on gmEra, result in words” value in data set [2] is given as “did not antagonize gmEra; also recorded: no antiestrogenic effects”. For the same compound, in data set [3] (relative to BPA), the “gmAra REP50 (relative potency EC50, EC50-bisphenol A/EC50-bisphenol X)” value is 1.0. The “effect on testosterone-mediated gmAra activity, result in words” value in data set [4] is given as “significantly decrease the testosterone-mediated Ara-activity”. The IC50 in data set [4] came out at 140 nM.
